PubChem BioAssay AID256 (DTP/NCI, 2004)
Several values for one entry are separate records, joined by “and”; a condition that tells them apart may be missing. Equal entries are not always repeated. Toxic doses and inconclusive results are not listed. How the source made its calls: active means survival T/C of 150% or more; inactive means T/C below 125% in these data.

System: CD2F1 mice, L1210 leukemia ip, survival T/C
Experiment: NCI In Vivo Anticancer Drug Screen. Data for tumor model L1210 Leukemia (intraperitoneal) in CD2F1 (CDF1) mice
Details: higher = longer survival
Summary of the method: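 Mice carrying a transplanted tumor received test compound or vehicle alone. The value is the measurement in the treated group divided by that in the vehicle-treated control group.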

[1] = endpoint: mean survival time, dose: 100.0 mg/kg/injection, schedule: Q04DX003 (ip), vehicle: saline with Tween-80
[2] = endpoint: mean survival time, dose: 200.0 mg/kg/injection, schedule: Q04DX003 (ip), vehicle: saline with Tween-80
[3] = endpoint: mean survival time, dose: 400.0 mg/kg/injection, schedule: Q04DX003 (ip), vehicle: saline with Tween-80
[4] = endpoint: mean survival time, dose: 100.0 mg/kg/injection, schedule: Q01DX009 (ip), vehicle: saline with Tween-80
[5] = endpoint: mean survival time, dose: 200.0 mg/kg/injection, schedule: Q01DX009 (ip), vehicle: saline with Tween-80
[6] = endpoint: mean survival time, dose: 100.0 mg/kg/injection, schedule: Q01DX001 (ip), vehicle: saline with Tween-80
[7] = endpoint: mean survival time, dose: 200.0 mg/kg/injection, schedule: Q01DX001 (ip), vehicle: saline with Tween-80
[8] = endpoint: mean survival time, dose: 100.0 mg/kg/injection, schedule: Q01DX001 (ip), vehicle: saline
[9] = endpoint: mean survival time, dose: 200.0 mg/kg/injection, schedule: Q01DX001 (ip), vehicle: saline
[10] = endpoint: mean survival time, dose: 400.0 mg/kg/injection, schedule: Q01DX001 (ip), vehicle: saline

Measured: T/C

O=S(=O)(O)c1ccccc1.O=S(=O)(O)c1ccccc1.[NH-]C1CCCCC1[NH-].[Pt+2]
inactive: endpoint: mean survival time, dose: 6.0 mg/kg/injection, schedule: Q04DX003 (ip), vehicle: other 119 % of control
active: endpoint: mean survival time, dose: 1.0 mg/kg/injection, schedule: Q01DX009 (ip), vehicle: dextrose 220 % of control | endpoint: mean survival time, dose: 1.0 mg/kg/injection, schedule: Q04DX003 (ip), vehicle: other 170 % of control | endpoint: mean survival time, dose: 2.0 mg/kg/injection, schedule: Q04DX003 (ip), vehicle: other 218 % of control | endpoint: mean survival time, dose: 4.0 mg/kg/injection, schedule: Q01DX001 (ip), vehicle: dextrose 155 % of control | endpoint: mean survival time, dose: 4.0 mg/kg/injection, schedule: Q04DX003 (ip), vehicle: dextrose 221 % of control | endpoint: mean survival time, dose: 6.0 mg/kg/injection, schedule: Q04DX003 (ip), vehicle: dextrose 200 % of control | endpoint: mean survival time, dose: 8.0 mg/kg/injection, schedule: Q01DX001 (ip), vehicle: dextrose 155 % of control | endpoint: mean survival time, dose: 8.0 mg/kg/injection, schedule: Q04DX003 (ip), vehicle: dextrose 191 % of control | endpoint: mean survival time, dose: 12.0 mg/kg/injection, schedule: Q01DX001 (ip), vehicle: dextrose 196 % of control | endpoint: mean survival time, dose: 16.0 mg/kg/injection, schedule: Q01DX001 (ip), vehicle: dextrose 152 % of control and 303 % of control | endpoint: mean survival time, dose: 24.0 mg/kg/injection, schedule: Q01DX001 (ip), vehicle: dextrose 262 % of control

Nc1n[nH]c(=O)[nH]1
active: endpoint: mean survival time, dose: 250.0 mg/kg/injection, schedule: Q03HX024 (ip), vehicle: saline 161 % of control
inactive: endpoint: mean survival time, dose: 31.3 mg/kg/injection, schedule: Q03HX024 (ip), vehicle: saline 106 % of control | endpoint: mean survival time, dose: 62.5 mg/kg/injection, schedule: Q03HX024 (ip), vehicle: saline 106 % of control | endpoint: mean survival time, dose: 125.0 mg/kg/injection, schedule: Q03HX024 (ip), vehicle: saline 109 % of control

Cc1c(CNc2ccc(C(=O)NC(CC(=O)O)CC(=O)O)cc2)ccc2nc(N)nc(N)c12
active: endpoint: mean survival time, dose: 0.25 mg/kg/injection, schedule: Q01DX009 (ip), vehicle: saline 171 % of control
inactive: endpoint: mean survival time, dose: 0.5 mg/kg/injection, schedule: Q01DX009 (ip), vehicle: saline 118 % of control | endpoint: mean survival time, dose: 1.0 mg/kg/injection, schedule: Q01DX009 (ip), vehicle: saline 104 % of control

Nc1nnnn1-c1ccc(O)cc1
inactive: [1] 104 % of control | [2] 98 % of control | [3] 104 % of control

NC(=O)CC(NC(=O)OCc1ccccc1)C(=O)O (stereo unspecified)
inactive: [1] 95 % of control | [2] 101 % of control | [3] 93 % of control

CCSC(=O)CC
inactive: [4] 93 % of control | [5] 98 % of control

COC(=O)C[As+](c1ccccc1)(c1ccccc1)c1ccccc1
inactive: endpoint: mean survival time, dose: 75.0 mg/kg/injection, schedule: Q01DX001 (ip), vehicle: other 97 % of control | endpoint: mean survival time, dose: 75.0 mg/kg/injection, schedule: Q01DX001 (ip), vehicle: saline 103 % of control | endpoint: mean survival time, dose: 150.0 mg/kg/injection, schedule: Q01DX001 (ip), vehicle: other 91 % of control | endpoint: mean survival time, dose: 150.0 mg/kg/injection, schedule: Q01DX001 (ip), vehicle: saline 94 % of control

Cc1ccc(C(=O)CCCCl)cc1C
inactive: [4] 104 % of control | [5] 96 % of control | endpoint: mean survival time, dose: 400.0 mg/kg/injection, schedule: Q01DX009 (ip), vehicle: saline with Tween-80 98 % of control

CC(C)(C)OC(=O)NC(CSCc1ccccc1)C(=O)Oc1ccc([N+](=O)[O-])cc1 (stereo unspecified)
inactive: [1] 95 % of control | [2] 90 % of control | [3] 86 % of control

CC(C)CCCC(C)C1CCC2C3CCC4=CC5(CCC4(C)C3CCC12C)SCCS5 (stereo unspecified)
inactive: [6] 87 % of control | [7] 91 % of control

CC(C)OC(=O)C12Oc3ccc(-c4ccc5c(c4O)C(O)=C4C(=O)CC(C)C(O)C4(C(=O)OC(C)C)O5)c(O)c3C(O)=C1C(=O)CC(C)C2O (stereo unspecified)
inactive: endpoint: mean survival time, dose: 1.25 mg/kg/injection, schedule: Q01DX009 (ip), vehicle: saline with Tween-80 102 % of control | endpoint: mean survival time, dose: 2.5 mg/kg/injection, schedule: Q01DX009 (ip), vehicle: saline with Tween-80 95 % of control | endpoint: mean survival time, dose: 5.0 mg/kg/injection, schedule: Q01DX009 (ip), vehicle: saline with Tween-80 98 % of control

COC(=O)C(CCCCN=Cc1ccccc1O)N=Cc1ccccc1O.[Ni] (stereo unspecified)
inactive: endpoint: mean survival time, dose: 12.5 mg/kg/injection, schedule: Q01DX009 (ip), vehicle: saline with Tween-80 96 % of control | endpoint: mean survival time, dose: 25.0 mg/kg/injection, schedule: Q01DX009 (ip), vehicle: saline with Tween-80 96 % of control | endpoint: mean survival time, dose: 50.0 mg/kg/injection, schedule: Q01DX009 (ip), vehicle: saline with Tween-80 88 % of control and 94 % of control | [4] 93 % of control

CC(O)C[As](=O)(O)c1ccccc1Cl (stereo unspecified)
inactive: endpoint: mean survival time, dose: 6.25 mg/kg/injection, schedule: Q04DX003 (ip), vehicle: saline 107 % of control | endpoint: mean survival time, dose: 12.5 mg/kg/injection, schedule: Q04DX003 (ip), vehicle: saline 107 % of control

Cc1ccc([N+](=O)[O-])cc1NC(=O)COc1ccc(Cl)cc1
inactive: [1] 98 % of control | [2] 94 % of control | [3] 90 % of control

C1CC[N-]CC1.C1CC[N-]CC1.[Cl][Pd][Cl]
inactive: endpoint: mean survival time, dose: 25.0 mg/kg/injection, schedule: Q04DX002 (ip), vehicle: saline with Tween-80 89 % of control | endpoint: mean survival time, dose: 50.0 mg/kg/injection, schedule: Q04DX002 (ip), vehicle: saline with Tween-80 96 % of control

[Cl][Pt+2][Cl].[NH-]CC1CCCC[N-]1 (stereo unspecified)
active: endpoint: mean survival time, dose: 25.0 mg/kg/injection, schedule: Q04DX003 (ip), vehicle: distilled water + Tween-80 150 % of control | endpoint: median survival time, dose: 12.5 mg/kg/injection, schedule: Q04DX002 (ip), vehicle: saline 168 % of control | endpoint: median survival time, dose: 25.0 mg/kg/injection, schedule: Q04DX002 (ip), vehicle: saline 158 % of control
inactive: endpoint: mean survival time, dose: 6.25 mg/kg/injection, schedule: Q04DX003 (ip), vehicle: distilled water + Tween-80 121 % of control | endpoint: mean survival time, dose: 12.5 mg/kg/injection, schedule: Q04DX003 (ip), vehicle: distilled water + Tween-80 115 % of control | endpoint: mean survival time, dose: 50.0 mg/kg/injection, schedule: Q04DX003 (ip), vehicle: distilled water + Tween-80 123 % of control | endpoint: mean survival time, dose: 200.0 mg/kg/injection, schedule: Q04DX003 (ip), vehicle: distilled water + Tween-80 91 % of control

CCOC(=O)C1CC=CCC1C(=O)OCC (stereo unspecified)
inactive: endpoint: mean survival time, dose: 35.0 mg/kg/injection, schedule: Q04DX003 (ip), vehicle: other 111 % of control | endpoint: mean survival time, dose: 65.0 mg/kg/injection, schedule: Q04DX003 (ip), vehicle: other 94 % of control | endpoint: mean survival time, dose: 100.0 mg/kg/injection, schedule: Q04DX003 (ip), vehicle: other 103 % of control | endpoint: mean survival time, dose: 150.0 mg/kg/injection, schedule: Q04DX003 (ip), vehicle: other 100 % of control

Nc1ccn([C@@H](C=O)O[C@@H](C=O)CO)c(=O)n1
active: endpoint: mean survival time, dose: 100.0 mg/kg/injection, schedule: Q01DX009 (ip), vehicle: saline 155 % of control and 162 % of control | endpoint: mean survival time, dose: 200.0 mg/kg/injection, schedule: Q01DX009 (ip), vehicle: saline 211 % of control
inactive: endpoint: mean survival time, dose: 6.25 mg/kg/injection, schedule: Q01DX009 (ip), vehicle: saline 105 % of control | endpoint: mean survival time, dose: 12.5 mg/kg/injection, schedule: Q01DX009 (ip), vehicle: saline 114 % of control and 108 % of control | endpoint: mean survival time, dose: 25.0 mg/kg/injection, schedule: Q01DX009 (ip), vehicle: saline 115 % of control and 117 % of control | endpoint: mean survival time, dose: 50.0 mg/kg/injection, schedule: Q01DX009 (ip), vehicle: saline 121 % of control | endpoint: mean survival time, dose: 70.0 mg/kg/injection, schedule: Q01DX001 (ip), vehicle: saline 114 % of control | endpoint: mean survival time, dose: 140.0 mg/kg/injection, schedule: Q01DX001 (ip), vehicle: saline 124 % of control

O=c1cc(-c2ccccc2)[nH]c(=S)[nH]1
inactive: [6] 115 % of control | [7] 102 % of control | endpoint: mean survival time, dose: 400.0 mg/kg/injection, schedule: Q01DX001 (ip), vehicle: saline with Tween-80 97 % of control

CC(C)(C)c1ccc(OCCO)cc1
inactive: endpoint: mean survival time, dose: 100.0 mg/kg/injection, schedule: Q01DX009 (ip), vehicle: other 108 % of control | [1] 100 % of control

CC(CP(=O)(c1ccccc1)c1ccccc1)C(=O)O (stereo unspecified)
inactive: [1] 92 % of control | [2] 95 % of control | [3] 101 % of control

O=C(CCN1C(=O)c2ccccc2C1=O)c1ccc(O)cc1
inactive: [1] 93 % of control | [2] 98 % of control | [3] 92 % of control

O=C1[O][Hg][c]2cc([N+](=O)[O-])cc3cccc1c23.O=C1[O][Hg][c]2cccc3cc([N+](=O)[O-])cc1c23
inactive: [8] 94 % of control | [9] 94 % of control | [10] 94 % of control

O=C(OC12CCCC1CC2)c1ccc([N+](=O)[O-])cc1 (stereo unspecified)
inactive: [4] 97 % of control | [5] 95 % of control

CCCN(CCC)S(=O)(=O)c1ccc(NC(=O)OC2CC(C)CCC2C(C)C)cc1 (stereo unspecified)
inactive: [8] 105 % of control | [9] 100 % of control | [10] 95 % of control
